Assay results reported in article PMC12458691 (Inorganic Chemistry, 2025).
Like-named read-outs stand apart in the source and are kept apart here. Each block holds one compound with its values, some of them ahead of it.

Key:
[1] = Protonation constants by potentiometric and UV–vis titrations; format: physicochemical
Method: (§1) Caution! Perchlorate salts are explosive and should be handled with care; such compounds should never be heated as solids. The potentiometric titrations were carried out at 298.1 ± 0.1 K using 0.15 M NaClO4 as the supporting electrolyte. The experimental procedure (buret, potentiometer, cell, stirrer, microcomputer, etc.) has been fully described elsewhere. The acquisition of raw potentiometric data was performed with the computer program PASAT. The reference electrode was a Ag/AgCl electrode in a saturated KCl solution. The glass electrode was calibrated as a hydrogen-ion concentration probe by titration of previously standardized amounts of HCl with CO2-free NaOH solutions, and the equivalent point was determined by Gran’s method, , which gives the standard potential, E̊, and the ionic product of water (pK w = 13.73(1)). The computer program […] was used to calculate the protonation and stability constants. The HYSS program was used to obtain the distribution diagrams. The pH range investigated by using this technique was 2.5–11.0, in accordance with the linear response range of glass electrodes. The solutions were extensively deaerated with an argon flow before the potentiometric runs. A moderate argon flow was maintained throughout the course of the titrations. The different titration curves for each system (at least two) were treated either as a single set or as separate curves without significant variations in the values of the stability constants. Finally, the sets of data were merged and treated simultaneously to give the final stability constants.
The solvents used were of spectroscopic or equivalent grade. Water was twice distilled and passed through a Millipore apparatus. The pH values were measured with a Metrohm 713 pH meter, and adjustments of the hydrogen-ion concentration of the solutions were made with diluted HCl and NaOH solutions. UV–vis absorption spectra were recorded between pH 2 and 11 with an Agilent 8453 spectrometer. The resulting data from the titrations were used to calculate the third protonation constant of ^ COOMe PyNMe 3 . For this, the HypSpec program was employed, considering all of the absorbance intensities in the range of 250 and 350 nm.

[2] = Stability constants and speciation of Cu2+ complexes by potentiometric measurements; format: physicochemical; conditions: for pCu: calculated for theoretical solutions
Method: as §1

[3] = Stability constants and speciation of Fe2+ complexes by potentiometric measurements; format: physicochemical; conditions: for pFe: calculated for theoretical solutions
Method: as §1

[4] = McCord–Fridovich nitroblue tetrazolium (NBT) SOD activity assay; format: biochemical; conditions: for SOD activity of the Fe2+ complexes (in words): NBT method, under the conditions of this study; for increase in the SOD catalytic constant of the Cu2+ complex on functionalization of the pyridine: relative to Cu2+ complexes of HPyNH3 or HPyNMe3
Excerpt: First, the SOD activity of the complexes was studied by means of the nitroblue tetrazolium (NBT) method, also known as McCord–Fridovich method. This is a widely used, indirect method based on the side production of superoxide anions by the xanthine oxidase enzyme and their capture by the NBT dye to give formazan. − A compound displaying SOD activity decreases the flow of superoxide radical anions and, thereby, the production of formazan (see the representation of the fitting of the data in Figures and S13–S16). Thus, by following the absorption band of formazan at 560 nm, the SOD activity of the studied mimetic can be quantified. Blank experiments were recorded with the ligands alone without observing any effect. The values of IC50, defined as the amount of the compound necessary for achieving 50% inhibition of NBT reduction to formazan by the superoxide anion, together with the catalytic constants (k cat), were obtained as indicated in the Experimental Section and are summarized in Table .
The SOD-like activity was determined by using the nitroblue tetrazolium (NBT) method, which despite its limitations is frequently used to estimate the activity of SOD mimetics. − The assays were carried out in a pH = 7.4 50 mM HEPES buffer at 298 K. The xanthine (2.2 × 10^–4 M) and xanthine oxidase (ca. 3 UN) system was used to generate a reproducible and constant flux of superoxide anions. […] Data in the absence of the complex were used as a reference. […] The percentage of inhibition of the NBT reduction to formazan was used as a measure of the SOD activity of the compounds. The concentration of the complex required to yield 50% inhibition of NBT reduction (IC50) was determined from a plot of percentage inhibition versus complex concentration. The IC50 data were calculated from the mean values of (at least) three independent measurements. The catalytic constant was calculated from the IC50 using the equation k cat = k NBT[NBT]/IC50 where k NBT = (5.94 ± 0.5) × 10^4 M^–1 s^–1. −

[5] = Catalase activity by pressure monitoring of evolved O2; format: biochemical; conditions: 25°C, pH 7.5
Method: The quantification of the evolved oxygen is frequently used to evaluate the catalase activity. − In this work, the amount of gas evolved during the reaction of the Fe^2+–^ COOH PyNMe 3 complex with hydrogen peroxide was monitored by measuring the pressure changes over time using a previously calibrated Man on the Moon X104 gas evolution kit. For that purpose, 2.5 mL of an aqueous solution of the complex at concentrations of (0.5–2.7) × 10^–4 M buffered at pH 7.5 with TRIS (50 mM) was prepared inside a glovebox, placed in a closed reaction vessel, and purged with nitrogen. Once the pressure readings were stabilized, 0.2–1.2 mL of a 0.12 M aqueous solution of H2O2 (also prepared in TRIS 50 mM at pH 7.4) was added, and the pressure was then measured as a function of time. A blank experiment was conducted with a complex-free solution of a 50 mM TRIS solution with hydrogen peroxide at pH 7.4, where no O2 evolution was detected. The same result was obtained for blank experiments, including also the ligand but not the metal ion or the free metal ion (i.e., Fe^2+, Fe^3+, or Cu^2+) in the absence of the ligand (see Entries 8–12 in Table ). […] Nevertheless, the possible formation of small amounts of CO2, which would introduce a small error in the estimation of evolved O2, cannot be completely ruled out.

[6] = set-up: method as in footnotes c–f, numbers not given; conditions: Cu2+ complexes/salt/enzyme, literature data for comparison; ref footnotes c–f, numbers not given; cited from earlier work
[7] = cited from earlier work
[8] = cited from earlier work; remark: listed apart in the source
[9] = set-up: method as in earlier work; conditions: Table S3, 0.15 M NaClO4, 298.1 K; ref 1 of the SI; cited from earlier work
[10] = set-up: method as in number not given; conditions: Mn2+ complexes of the ligands, recently reported; ref number not given; cited from earlier work
[11] = 0.15 M NaClO4, 298.1 K, potentiometry
[12] = entry 12: ligand alone 2.14 × 10^–4, no metal ion, [H2O2]0 3.4 × 10^–2 M
[13] = entry 10: no ligand, [Cu2+]0 2.7 × 10^–4 M as Cu(ClO4)2, [H2O2]0 4.3 × 10^–2 M
[14] = Table S2, 0.15 M NaClO4, 298.1 K, potentiometry, ref 1 of the SI
[15] = Table S3, 0.15 M NaClO4, 298.1 K, ref 1 of the SI
[16] = 0.15 M NaClO4, 298.1 K, ref footnote c, number not printed
[17] = entry 9: no ligand, 2.14 × 10^–4 M FeCl3, [H2O2]0 3.4 × 10^–2 M

- log β (∑log K, protonation) ([1]; 0.15 M NaClO4, 298.1 K): 21.53
- log K, H2L^(2+x)++H^+⇄H3L^(3+x)+ (stepwise protonation constant) [1, 11]: 2.90(4)
- log K, HL^(1+x)++H^+⇄H2L^(2+x)+ (stepwise protonation constant) [1, 11]: 7.73(3)
- log K, L^x+H^+⇄HL^(1+x)+ (stepwise protonation constant) [1, 11]: 10.90(2)
- three protonation constants, span from first to third ([1]; potentiometric titrations (third constant of COOMePyNMe3 by UV)): 10.90 to 2.90 logarithmic units
- log K, Cu+L⇄[CuL] (stability constant) ([2]; 0.15 M NaClO4, 298.1 K): 16.35(4)
- log K, [CuL]+H2O⇄[CuL(OH)]+H ([2]; 0.15 M NaClO4, 298.1 K): –9.24(7)
- log K, Cu+L⇄[CuL] (stability constant) ([2]; 0.15 M NaClO4, 298.1 K, listed as COOHPyNMe3): 16.35
- pCu ([2]; pH 7.4, [L]=[M]=1 µM): 9.18
- pCu ([2]; pH 7.4, [L]=[M]=10 µM): 8.68
- log K, Fe+L⇄[FeL] (stability constant) ([3]; 0.15 M NaClO4, 298.1 K): 10.02(2)
- log K, [FeL]+H2O⇄[FeL(OH)]+H ([3]; 0.15 M NaClO4, 298.1 K): –9.44(4)
- pFe ([3]; pH 7.4, [L]=[M]=1 µM): 6.22
- pFe ([3]; pH 7.4, [L]=[M]=10 µM): 5.58
- free Fe2+ ([3]; pH 7.5, [COOHPyNMe3]=[Fe2+]=50 µM, 0.15 M NaClO4 (Figure S19)): 10.9%
- free Fe2+ ([3]; pH 7.5, [COOHPyNMe3]=[Fe2+]=270 µM, 0.15 M NaClO4 (Figure S18)): 4.8%
- TON (moles of H2O2 decomposed by one mol of metal ions) [5, 12]: 0
- nO2(g) [5, 12]: 0 mol
Compound: CN1CCN(C)Cc2cc(C(=O)O)cc(n2)CN(C)CC1 [^ COOH PyNMe 3]
- SOD activity of the Fe2+ complexes (in words) [4]: negligible SOD activity
- k cat (SOD catalytic constant) ([4]; metal complexes, calculated from IC50 as kNBT[NBT]/IC50, pH 7.4, [NBT] = 59 μM): 12.3 10^6 M^–1 s^–1
- increase in the SOD catalytic constant of the Cu2+ complex on functionalization of the pyridine [4]: 6- to 10 fold

Compound: [Cu+2].[O-][Cl+3]([O-])([O-])[O-].[O-][Cl+3]([O-])([O-])[O-] [Cu(ClO4)2]
- TON (moles of H2O2 decomposed by one mol of metal ions) [5, 13]: 0
- nO2(g) [5, 13]: 0 mol
- k cat (SOD catalytic constant) [6]: 2.7 10^6 M^–1 s^–1

Compound: c1cc2nc(c1)CNCCNCCNC2 [^ H PyNH 3]
- log K, H + H2L ⇄ H3L (stepwise protonation constant) [7, 14]: 1.90(1)
- log K, H + HL ⇄ H2L (stepwise protonation constant) [7, 14]: 7.96(1)
- log K, H + L ⇄ HL (stepwise protonation constant) [7, 14]: 10.54(1)
- log β (∑log K, protonation) ([7]; Table S2, 0.15 M NaClO4, 298.1 K, ref 1 of the SI): 20.40
- log K, [CuL(OH)]+ + H2O ⇄ [CuL(OH)2] + H+ [8, 15]: -10.7(1)
- log K, [CuL]2+ + H2O ⇄ [CuL(OH)]+ + H+ [8, 15]: -8.68(8)
- log K, Fe2+ + L ⇄ [FeL]2+ (stability constant) [9]: 12.68(2)
- log K, [FeL]2+ + H2O ⇄ [FeL(OH)] + H+ [9]: -6.94(5)
- k cat (SOD catalytic constant) [6]: 1.7 10^6 M^–1 s^–1
- TON of catalase activity of the Mn2+ complexes [10]: 25–37

- pCu ([2]; pH 7.4, [L]=[M]=1 µM): 9.80
- pCu ([2]; pH 7.4, [L]=[M]=10 µM): 9.30
Compound: O=C(O)c1cc2nc(c1)CNCCNCCNC2 [^ COOH PyNH 3]
- SOD activity of the Fe2+ complexes (in words) [4]: negligible SOD activity
- increase in the SOD catalytic constant of the Cu2+ complex on functionalization of the pyridine [4]: 6- to 10 fold
- log K, H2L^(2+x)++H^+⇄H3L^(3+x)+ (stepwise protonation constant) [7, 16]: 2.25(2)
- log K, HL^(1+x)++H^+⇄H2L^(2+x)+ (stepwise protonation constant) [7, 16]: 7.90(1)
- log K, L^x+H^+⇄HL^(1+x)+ (stepwise protonation constant) [7, 16]: 10.80(1) ^d
- log β (∑log K, protonation) [7, 16]: 20.95
- log K, Cu+L⇄[CuL] (stability constant) [8, 16]: 17.62(2) ^c, ^d
- log K, [CuL]+H2O⇄[CuL(OH)]+H [8, 16]: –9.07(2) ^c
- log K, Cu+L⇄[CuL] (stability constant) ([8]; 0.15 M NaClO4, 298.1 K, ref footnote c, number not printed, listed as COOHPyNH3): 17.62
- k cat (SOD catalytic constant) [6]: 9.7 10^6 M^–1 s^–1

- TON (moles of H2O2 decomposed by one mol of metal ions) [5, 17]: 0
- nO2(g) [5, 17]: 0 mol
Compound: [Cl][Fe]([Cl])[Cl] [FeCl3]
